Assay results published in patent US20240391954A1, “MC4R AGONIST PEPTIDES” (The Regents of the University of Michigan, priority 2021, published 2024).
Like-named read-outs stand apart in the source and are kept apart here. Positions of bridges follow the written chain, without caps; N, C: chain ends. Non-standard residues stand in square brackets, D forms with d. Residues, ends and D or L forms follow the SMILES beside them. dPhe(4-tBu) = CC(C)(C)c1ccc(C[C@@H](N)C(=O)O)cc1; dPhe(4-NH2) = Nc1ccc(C[C@@H](N)C(=O)O)cc1; dPhe(4-Br) = N[C@H](Cc1ccc(Br)cc1)C(=O)O; NMeR = CN[C@@H](CCCNC(=N)N)C(=O)O; Cit = NC(=O)NCCC[C@H](N)C(=O)O; Nle = CCCC[C@H](N)C(=O)O

How the values were obtained:
human MC4R = target: T1, human MC4R (Homo sapiens, UniProt P32245); assay: split-luciferase cAMP sensor assay, agonist mode (measurement window 1), hMC4R; assay type: cell-based; conditions: for Emax: read-out: MC4R cAMP % max activation
T1 construct: host or cells: HEK-293 cells stably expressing the GScAMP22F split-luciferase cAMP sensor and hMC4R, G418 selection
Protocol: (§1) The stable cell lines were grown and maintained in selection media consisting of Dulbecco's modified Eagle media (DMEM) with 4.5 g/l D-glucose, and 4 mM L-glutamine (Thermo Fisher Scientific, Waltham, MA), supplemented with 10% fetal bovine serum, 100 units/ml penicillin, 100 μg/ml streptomycin, 2.5 μg/ml amphotericin B, 200 μg/ml hygromycin B (for positive selection of the GScAMP22f luciferase reporter), and Geneticin™ (G418) 700 μg/ml (for MC3R or MC4R selection). Actual serum concentration during the assay is estimated to be about 1%. Cell line identity is routinely verified by qPCR and MC3R-and MC4R-specific oligonucleotides.
(§2) The assay for the determination of the cAMP response in live cells was described previously. […] Cells were seeded at a density of 20,000 cells per well using 384-well poly-D lysine-coated, clear bottom, and black-wall assay plates (Corning Inc. Corning, NJ). Cells were allowed to attach to the plates for 18 to 24 h after which growth media was removed and 20 μl of 4% D-luciferin (Promega) in CO2 independent, serum-free medium (Thermo Fisher Scientific) was added to each well. […] Intracellular cAMP levels were measured using an FDSS 7000EX Functional Drug Screening System (Hamamatsu Photonics, Hamamatsu, Japan) in the Center for Chemical Genomics at the Life Sciences Institute. This instrument allowed the in-line addition of test-peptides and receptor agonists while simultaneously acquiring the luminescence signal from live cells. […] A submaximal forskolin (20 μM) concentration was also included to serve as a normalization reference to account for cell number variations and differences in assay transducer efficiency between cell lines.
(§3) With this set up it was possible to evaluate the direct effect of the test-peptides on the MC3R and MC4R cell lines during measurement window 1, while the antagonist profile in the presence of EC90 α-MSH was determined on measurement window 2. […] EC50 or IC50 potency values were determined by non-linear regression by fitting the data to a sigmoid four-parameter variable slope model using the GraphPad Prism version 8.4 software package (San Diego CA).

human MC3R = target: T2, human MC3R (Homo sapiens, UniProt P41968); assay: split-luciferase cAMP sensor assay, agonist mode (measurement window 1), hMC3R; assay type: cell-based; conditions: for Emax: read-out: MC3R cAMP % max activation
T2 construct: expressed in transfected cells; host or cells: HEK-293 cells stably expressing the GScAMP22F split-luciferase cAMP sensor (parent reporter line from Promega); MC3R clone generated in-house, G418 selection
Protocol: as §1, §2, §3

[1] = agonist mode, hMC4R stable cell line
[2] = agonist mode, hMC3R stable cell line
[3] = agonist mode, hMC3R stable cell line, read-out: MC3R cAMP EC50
[4] = agonist mode, hMC4R stable cell line, read-out: MC4R cAMP EC50
[5] = % maximal activation, agonist mode

T2 sequence (P41968 whole entry): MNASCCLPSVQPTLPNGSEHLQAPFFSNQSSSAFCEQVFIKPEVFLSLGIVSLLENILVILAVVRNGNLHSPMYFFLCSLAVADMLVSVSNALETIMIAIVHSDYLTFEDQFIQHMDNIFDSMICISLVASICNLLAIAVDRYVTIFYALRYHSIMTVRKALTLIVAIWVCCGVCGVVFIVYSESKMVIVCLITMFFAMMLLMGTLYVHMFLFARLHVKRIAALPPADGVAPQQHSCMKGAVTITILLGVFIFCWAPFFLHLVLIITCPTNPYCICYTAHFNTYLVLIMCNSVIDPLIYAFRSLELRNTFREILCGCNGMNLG
T1 sequence (P32245 whole entry): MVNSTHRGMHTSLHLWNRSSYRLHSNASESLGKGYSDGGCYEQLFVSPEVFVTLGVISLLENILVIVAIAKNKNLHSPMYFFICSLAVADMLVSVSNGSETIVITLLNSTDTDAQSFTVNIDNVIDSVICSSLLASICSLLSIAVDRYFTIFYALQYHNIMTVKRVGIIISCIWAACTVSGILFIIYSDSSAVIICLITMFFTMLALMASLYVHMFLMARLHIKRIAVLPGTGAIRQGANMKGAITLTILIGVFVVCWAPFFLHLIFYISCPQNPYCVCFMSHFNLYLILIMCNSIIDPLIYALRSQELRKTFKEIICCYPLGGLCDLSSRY

Row | Structure (SMILES) | Emax (human MC4R; [1]) [%] | Emax (human MC3R; [2]) [%] | MC4R selectivity vs MC1R (human MC4R) | MC4R selectivity vs MC3R (human MC4R) | EC50 (human MC3R; [3]) [nM] | further results
1 | CC(=O)Nc1ccc(C[C@H]2NC(=O)[C@H](CCCNC(=N)N)NC(=O)[C@@H](C)NC(=O)[C@@H](NC(=O)[C@H](CCCNC(=N)N)NC(C)=O)CSSC[C@@H](C(N)=O)NC(=O)[C@@H](Cc3c[nH]c4ccccc34)NC(=O)[C@H](CCCNC(=N)N)NC2=O)cc1 [CTX-1245, Arg-cyclo(Cys-D-Ala-Arg-D-Phe(4-NH-Ac)-Arg-D-Trp-Cys)] (Ac-RC[dA]R[dPhe(4-NH2)](Ac)R[dW]C-NH2; disulfide 2-8) | 34 | 6.3 | – | – | – | –
2 | CC(=O)N[C@@H](CCCNC(=N)N)C(=O)N[C@H]1CSSC[C@@H](C(N)=O)NC(=O)[C@@H](Cc2c[nH]c3ccccc23)NC(=O)[C@H](CCCNC(N)=O)NC(=O)[C@@H](Cc2ccc(Br)cc2)NC(=O)[C@H](CCCNC(=N)N)NC(=O)[C@@H](C)NC1=O [CTX-1253, Arg-cyclo(Cys-D-Ala-Arg-D-Phe(4-Br)-Cit-D-Trp-Cys)] (Ac-RC[dA]R[dPhe(4-Br)][Cit][dW]C-NH2; disulfide 2-8 (inferred)) | 58 | 9.2 | 0.57 | 0.53 | 4 | –
3 | CC(=O)N[C@@H](CCCNC(=N)N)C(=O)N[C@H]1CSSC[C@@H](C(=O)N[C@@H](CCCCN)C(=O)N2CCC[C@H]2C(=O)N[C@H](C(N)=O)C(C)C)NC(=O)[C@@H](Cc2c[nH]c3ccccc23)NC(=O)[C@H](CCCNC(=N)N)NC(=O)[C@@H](Cc2ccc(Br)cc2)NC(=O)[C@H](CCCNC(=N)N)NC(=O)[C@@H](C)NC1=O [CTX-1216, Arg-cyclo(Cys-D-Ala-Arg-D-Phe(4-Br)-Arg-D-Trp-Cys)-Lys-Pro-Val] (Ac-RC[dA]R[dPhe(4-Br)]R[dW]CKPV-NH2; disulfide 2-8 (inferred)) | 69 | 11 | 0.82 | 1.99 | 3.5 | EC50 (human MC4R; [4]): 1.8 nM
4 | CC(=O)N[C@@H](CCCNC(=N)N)C(=O)N[C@H]1CSSC[C@@H](C(N)=O)NC(=O)[C@@H](Cc2c[nH]c3ccccc23)NC(=O)[C@@H](CCCNC(=N)N)NC(=O)[C@@H](Cc2ccc(Br)cc2)NC(=O)[C@H](CCCNC(=N)N)NC(=O)[C@@H](C)NC1=O [CTX-1252, Arg-cyclo(Cys-D-Ala-Arg-D-Phe(4-Br)-D-Arg-D-Trp-Cys)] (Ac-RC[dA]R[dPhe(4-Br)][dR][dW]C-NH2; disulfide 2-8 (inferred)) | 4.4 | 1.1 | 0.04 | 0.06 | – | –
5 | CCCC[C@H](NC(=O)[C@H](CCCNC(=N)N)NC(C)=O)C(=O)N[C@H]1CSSC[C@@H](C(N)=O)NC(=O)[C@H](Cc2c[nH]c3ccccc23)NC(=O)[C@H](CCCNC(=N)N)NC(=O)[C@@H](Cc2ccc(Br)cc2)NC(=O)[C@H](Cc2c[nH]cn2)NC1=O [CTX-1229, Arg-Nle-cyclo(Cys-His-D-Phe(4-Br)-Arg-Trp-Cys)] (Ac-R[Nle]CH[dPhe(4-Br)]RWC-NH2; disulfide 3-8 (inferred)) | 31 | 16 | – | – | 3.5 | MC4R selectivity vs MC1R (human MC4R; cell printed in nM (see doubts)): 18 nM
6 | CC(=O)N[C@@H](CCCNC(=N)N)C(=O)N[C@H]1CSSC[C@@H](C(N)=O)NC(=O)[C@@H](Cc2c[nH]c3ccccc23)NC(=O)[C@H](CCCNC(=N)N)NC(=O)[C@@H](Cc2ccc(C(C)(C)C)cc2)NC(=O)[C@H](CCCNC(=N)N)NC(=O)[C@@H](C)NC1=O [CTX-1242, Arg-cyclo(Cys-D-Ala-Arg-D-Phe(4-tBu)-Arg-D-Trp-Cys)] (Ac-RC[dA]R[dPhe(4-tBu)]R[dW]C-NH2; disulfide 2-8 (inferred)) | 5.8 | 2.8 | 0.64 | 0.08 | – | –
7 | CC(=O)N[C@@H](CCCNC(=N)N)C(=O)N[C@H]1CSSC[C@@H](C(N)=O)NC(=O)[C@@H](Cc2c[nH]c3ccccc23)NC(=O)[C@H](CCCNC(=N)N)NC(=O)[C@@H](Cc2ccc(Br)cc2)NC(=O)[C@H](CCCNC(=N)N)N(C)C(=O)[C@@H](C)NC1=O [CTX-1248, Arg-cyclo(Cys-D-Ala-NMe-Arg-D-Phe(4-Br)-Arg-D-Trp-Cys)] (Ac-RC[dA][NMeR][dPhe(4-Br)]R[dW]C-NH2; disulfide 2-8 (inferred)) | 47 | 18 | 1.31 | 1.36 | 2.8 | EC50 (human MC4R; [4]): 2 nM
8 | CCCC[C@H](NC(=O)[C@H](CCCNC(=N)N)NC(C)=O)C(=O)N[C@H]1CSSC[C@@H](C(N)=O)NC(=O)[C@H](Cc2ccccc2)NC(=O)[C@H](CCCNC(=N)N)NC(=O)[C@@H](Cc2ccc(Br)cc2)NC(=O)[C@H](CCCNC(=N)N)NC1=O [CTX-1623, Arg-Nle-cyclo(Cys-Arg-D-Phe(4-Br)-Arg-Phe-Cys)] (Ac-R[Nle]CR[dPhe(4-Br)]RFC-NH2; disulfide 3-8) | – | – | – | – | – | Emax (human MC4R; [5]): 73%; Emax (human MC3R; [5]): 62%
9 | CC(=O)N[C@@H](CCCNC(=N)N)C(=O)N[C@H]1CSSC[C@@H](C(N)=O)NC(=O)[C@H](Cc2c[nH]c3ccccc23)NC(=O)[C@H](CCCNC(=N)N)NC(=O)[C@H](Cc2ccccc2)NC(=O)[C@H](Cc2c[nH]cn2)NC(=O)[C@@H](C)NC1=O [CTX-1213, Arg-cyclo(Cys-D-Ala-His-Phe-Arg-Trp-Cys)] | – | – | – | – | – | Emax (human MC4R; [5]): 104%; Emax (human MC3R; [5]): 97%
10 | CCCC[C@H](NC(=O)[C@H](CCCNC(=N)N)NC(C)=O)C(=O)N[C@H]1CSSC[C@@H](C(N)=O)NC(=O)[C@@H](Cc2c[nH]c3ccccc23)NC(=O)[C@H](CCCNC(=N)N)NC(=O)[C@@H](Cc2ccc(Br)cc2)NC(=O)[C@H](Cc2c[nH]cn2)NC1=O [CTX-1231, Arg-Nle-cyclo(Cys-His-D-Phe(4-Br)-Arg-D-Trp-Cys)] (Ac-R[Nle]CH[dPhe(4-Br)]R[dW]C-NH2; disulfide 3-8 (inferred)) | 64 | 59 | 0.19 | 3.04 | – | EC50 (human MC4R; [4]): 2.3 nM
11 | CC(=O)N[C@@H](CCCNC(=N)N)C(=O)N[C@H]1CSSC[C@@H](C(N)=O)NC(=O)[C@H](Cc2c[nH]c3ccccc23)NC(=O)[C@H](CCCNC(=N)N)NC(=O)[C@@H](Cc2ccc(Br)cc2)NC(=O)[C@H](Cc2c[nH]cn2)NC(=O)[C@@H](C)NC1=O [CTX-2206, Arg-cyclo(Cys-D-Ala-His-D-Phe(4-Br)-Arg-Trp-Cys)] | 98 | 28 | – | 7.35 | 22 | EC50 (human MC4R; agonist mode, hMC4R stable cell line, unit inferred, read-out: MC4R cAMP EC50): 3 nM
12 | CC(=O)N[C@@H](CCCNC(=N)N)C(=O)N[C@H]1CSSC[C@@H](C(N)=O)NC(=O)[C@@H](Cc2c[nH]c3ccccc23)NC(=O)[C@H](CCCNC(=N)N)NC(=O)[C@@H](Cc2c[nH]c3ccccc23)NC(=O)[C@H](CCCNC(=N)N)NC(=O)[C@@H](C)NC1=O [CTX-1244, Arg-cyclo(Cys-D-Ala-Arg-D-Trp-Arg-D-Trp-Cys)] (Ac-RC[dA]R[dW]R[dW]C-NH2; disulfide 2-8 (inferred)) | – | – | 0.26 | 0.11 | 13 | MC4R cAMP % max activation (human MC4R; [1]): (42%); EC50 (human MC4R; [4]): 109 nM; MC3R cAMP % max activation (human MC3R; [2]): (10%)
13 | CC(=O)N[C@H]1CSSC[C@@H](C(N)=O)NC(=O)[C@H](Cc2c[nH]c3ccccc23)NC(=O)[C@H](CCCNC(=N)N)NC(=O)[C@@H](Cc2ccccc2)NC(=O)[C@H](Cc2c[nH]cn2)NC(=O)[C@@H](C)NC1=O [CTX-1207, cyclo(Cys-D-Ala-His-D-Phe-Arg-Trp-Cys)] | – | – | – | – | – | Emax (human MC4R; [5]): 96%; EC50 (human MC4R; MC4R cAMP EC50, HEK-293 cells stably expressing hMC4R, agonist mode): 0.91 nM; Emax (human MC3R; [5]): 89%; EC50 (human MC3R; MC3R cAMP EC50, HEK-293 cells stably expressing hMC3R, agonist mode): 8.1 nM; MC4R selectivity vs MC3R (human MC3R; MC4R versus MC3R): 8.87
14 | CC(=O)N[C@@H](CCCNC(=N)N)C(=O)N[C@H]1CSSC[C@@H](C(N)=O)NC(=O)[C@@H](C)NC(=O)[C@H](CCCNC(=N)N)NC(=O)[C@@H](Cc2ccc(Br)cc2)NC(=O)[C@H](CCCNC(=N)N)NC(=O)[C@@H](C)NC1=O [CTX-1260, Arg-cyclo(Cys-D-Ala-Arg-D-Phe(4-Br)-Arg-D-Ala-Cys)] (Ac-RC[dA]R[dPhe(4-Br)]R[dA]C-NH2; disulfide 2-8) | 38 | 13 | 0.01 | 0.05 | – | –
